Reference: the NIST ThermoML archive (doi:10.1021/je0601457)
Numbers after ± are expanded uncertainties.

Assay: xn = mol fraction of the nth substance listed

Cc1nccnc1C [2,3-dimethylpyrazine] + O=C=O
Fluid (supercritical or subcritical phases), Linear displacement technique
Conditions	mass density [kg/m3]
294.15 K, 7140 kPa, x1 = 0.027	905 ± 36
294.15 K, 9590 kPa, x1 = 0.027	934 ± 37
294.15 K, 14100 kPa, x1 = 0.027	983 ± 39
294.55 K, 7140 kPa, x1 = 0.049	1099 ± 46
294.55 K, 7140 kPa, x1 = 0.184	947 ± 38
294.55 K, 8520 kPa, x1 = 0.184	949 ± 38
294.55 K, 10590 kPa, x1 = 0.049	1123 ± 45
294.55 K, 12450 kPa, x1 = 0.184	951 ± 38
294.55 K, 13830 kPa, x1 = 0.049	1142 ± 47
294.75 K, 2240 kPa, x1 = 0.736	861 ± 34
294.75 K, 3830 kPa, x1 = 0.736	864 ± 35
294.75 K, 5690 kPa, x1 = 0.736	864 ± 35
294.75 K, 6720 kPa, x1 = 0.033	836 ± 34
294.75 K, 8450 kPa, x1 = 0.033	858 ± 35
294.75 K, 13830 kPa, x1 = 0.033	911 ± 37
294.85 K, 6660 kPa, x1 = 0.108	899 ± 36
294.85 K, 7070 kPa, x1 = 0.565	958 ± 38
294.85 K, 10070 kPa, x1 = 0.108	901 ± 36
294.85 K, 10620 kPa, x1 = 0.565	961 ± 38
294.85 K, 13620 kPa, x1 = 0.108	904 ± 36
294.85 K, 15240 kPa, x1 = 0.565	964 ± 39
294.85 K, 18660 kPa, x1 = 0.108	908 ± 36
295.05 K, 7070 kPa, x1 = 0.157	995 ± 40
295.05 K, 10310 kPa, x1 = 0.157	1004 ± 40
295.05 K, 13480 kPa, x1 = 0.157	1014 ± 41
295.25 K, 6140 kPa, x1 = 0.086	767 ± 31
295.25 K, 6380 kPa, x1 = 0.057	871 ± 35
295.25 K, 7410 kPa, x1 = 0.057	885 ± 36
295.25 K, 7690 kPa, x1 = 0.01	785 ± 32
295.25 K, 8380 kPa, x1 = 0.086	778 ± 31
295.25 K, 10170 kPa, x1 = 0.057	911 ± 38
295.25 K, 11100 kPa, x1 = 0.01	833 ± 34
295.25 K, 12100 kPa, x1 = 0.086	799 ± 32
295.25 K, 15790 kPa, x1 = 0.01	873 ± 35
295.25 K, 16070 kPa, x1 = 0.086	817 ± 33
296.25 K, 4410 kPa, x1 = 0.433	989 ± 40
296.25 K, 7660 kPa, x1 = 0.433	997 ± 40
296.25 K, 10720 kPa, x1 = 0.433	1002 ± 40
301.75 K, 6620 kPa, x1 = 0.565	938 ± 38
301.75 K, 9830 kPa, x1 = 0.565	941 ± 38
301.75 K, 15790 kPa, x1 = 0.565	946 ± 38
302.65 K, 7520 kPa, x1 = 0.049	902 ± 36
302.65 K, 10030 kPa, x1 = 0.049	934 ± 37
302.65 K, 13030 kPa, x1 = 0.049	962 ± 39
302.65 K, 16660 kPa, x1 = 0.049	1000 ± 40
303.25 K, 7410 kPa, x1 = 0.291	859 ± 35
303.25 K, 9860 kPa, x1 = 0.291	860 ± 34
303.25 K, 15450 kPa, x1 = 0.291	860 ± 34
306.25 K, 7410 kPa, x1 = 0.027	750 ± 31
306.25 K, 9900 kPa, x1 = 0.027	812 ± 33
306.25 K, 13380 kPa, x1 = 0.027	864 ± 35
308.95 K, 7070 kPa, x1 = 0.157	952 ± 40
308.95 K, 9450 kPa, x1 = 0.157	964 ± 39
308.95 K, 13480 kPa, x1 = 0.157	981 ± 39
308.95 K, 17690 kPa, x1 = 0.157	996 ± 40
310.85 K, 6970 kPa, x1 = 0.433	967 ± 39
310.85 K, 12480 kPa, x1 = 0.433	975 ± 39
310.85 K, 21340 kPa, x1 = 0.433	994 ± 40
311.45 K, 7380 kPa, x1 = 0.184	912 ± 37
311.45 K, 9210 kPa, x1 = 0.184	918 ± 37
311.45 K, 12380 kPa, x1 = 0.184	925 ± 37
311.45 K, 16720 kPa, x1 = 0.184	932 ± 37
312.65 K, 10170 kPa, x1 = 0.033	763 ± 31
312.65 K, 12660 kPa, x1 = 0.033	804 ± 33
312.65 K, 15970 kPa, x1 = 0.033	851 ± 34
312.75 K, 8520 kPa, x1 = 0.057	874 ± 35
312.75 K, 9970 kPa, x1 = 0.057	905 ± 37
312.75 K, 10450 kPa, x1 = 0.057	914 ± 38
313.95 K, 10520 kPa, x1 = 0.108	879 ± 35
313.95 K, 13660 kPa, x1 = 0.108	888 ± 36
313.95 K, 17210 kPa, x1 = 0.108	896 ± 36
314.25 K, 9830 kPa, x1 = 0.01	500 ± 40
314.25 K, 11830 kPa, x1 = 0.01	769 ± 32
314.25 K, 18590 kPa, x1 = 0.01	799 ± 32
315.85 K, 9380 kPa, x1 = 0.086	702 ± 29
315.85 K, 12310 kPa, x1 = 0.086	728 ± 29
315.85 K, 16520 kPa, x1 = 0.086	752 ± 30
315.85 K, 24210 kPa, x1 = 0.086	786 ± 31
316.05 K, 7480 kPa, x1 = 0.291	857 ± 34
316.05 K, 8660 kPa, x1 = 0.291	858 ± 34
316.05 K, 11340 kPa, x1 = 0.291	858 ± 35
316.25 K, 6170 kPa, x1 = 0.565	923 ± 37
316.25 K, 10000 kPa, x1 = 0.565	926 ± 37
316.25 K, 16380 kPa, x1 = 0.565	935 ± 37
317.35 K, 5590 kPa, x1 = 0.736	859 ± 34
317.35 K, 11590 kPa, x1 = 0.736	860 ± 34
317.35 K, 16450 kPa, x1 = 0.736	862 ± 34
318.75 K, 7690 kPa, x1 = 0.433	955 ± 38
318.75 K, 16070 kPa, x1 = 0.433	969 ± 39
318.75 K, 22930 kPa, x1 = 0.433	977 ± 39
319.35 K, 10520 kPa, x1 = 0.049	834 ± 34
319.35 K, 15340 kPa, x1 = 0.049	906 ± 36
319.35 K, 18660 kPa, x1 = 0.049	946 ± 38
321.05 K, 10210 kPa, x1 = 0.157	927 ± 38
321.05 K, 12000 kPa, x1 = 0.157	937 ± 38
321.05 K, 16280 kPa, x1 = 0.157	958 ± 38
321.05 K, 18660 kPa, x1 = 0.157	970 ± 39
322.35 K, 11790 kPa, x1 = 0.027	717 ± 30
322.35 K, 13000 kPa, x1 = 0.027	688 ± 28
322.35 K, 13410 kPa, x1 = 0.027	761 ± 47
322.35 K, 15620 kPa, x1 = 0.027	757 ± 31
322.35 K, 16310 kPa, x1 = 0.027	812 ± 33
323.35 K, 10660 kPa, x1 = 0.057	815 ± 33
323.35 K, 11970 kPa, x1 = 0.057	849 ± 34
323.35 K, 16030 kPa, x1 = 0.057	904 ± 36
324.95 K, 7830 kPa, x1 = 0.433	944 ± 38
324.95 K, 13900 kPa, x1 = 0.433	955 ± 38
324.95 K, 20660 kPa, x1 = 0.433	968 ± 39
325.25 K, 6140 kPa, x1 = 0.736	859 ± 34
325.25 K, 10720 kPa, x1 = 0.736	860 ± 34
325.25 K, 18170 kPa, x1 = 0.736	861 ± 34
325.65 K, 10520 kPa, x1 = 0.184	894 ± 36
325.65 K, 12660 kPa, x1 = 0.184	903 ± 36
325.65 K, 18030 kPa, x1 = 0.184	916 ± 37
328.55 K, 10170 kPa, x1 = 0.291	857 ± 35
328.55 K, 10660 kPa, x1 = 0.01	438 ± 63
328.55 K, 10970 kPa, x1 = 0.01	552 ± 44
328.55 K, 11970 kPa, x1 = 0.01	635 ± 32
328.55 K, 12140 kPa, x1 = 0.291	858 ± 34
328.55 K, 13000 kPa, x1 = 0.01	688 ± 29

Liquid, linear displacement
Conditions	mass density [kg/m3]
294.15 K, x1 = 0.027	868 ± 35
294.55 K, x1 = 0.049	1077 ± 43
294.55 K, x1 = 0.184	945 ± 38
294.75 K, x1 = 0.033	802 ± 32
294.75 K, x1 = 0.736	861 ± 35
294.85 K, x1 = 0.108	896 ± 37
294.85 K, x1 = 0.565	947 ± 38
295.05 K, x1 = 0.157	982 ± 39
295.25 K, x1 = 0.01	735 ± 29
295.25 K, x1 = 0.057	832 ± 33
295.25 K, x1 = 0.086	730 ± 29
296.25 K, x1 = 0.433	985 ± 39
301.75 K, x1 = 0.565	920 ± 37
302.65 K, x1 = 0.049	876 ± 35
303.25 K, x1 = 0.291	858 ± 34
306.25 K, x1 = 0.027	738 ± 30
308.95 K, x1 = 0.157	948 ± 38
310.85 K, x1 = 0.433	962 ± 39
311.45 K, x1 = 0.184	912 ± 36
312.65 K, x1 = 0.033	694 ± 28
312.75 K, x1 = 0.057	860 ± 35
313.95 K, x1 = 0.108	864 ± 35
314.25 K, x1 = 0.01	584 ± 23
315.85 K, x1 = 0.086	687 ± 28
316.05 K, x1 = 0.291	858 ± 35
316.25 K, x1 = 0.565	920 ± 37
317.35 K, x1 = 0.736	859 ± 35
318.75 K, x1 = 0.433	951 ± 38
319.35 K, x1 = 0.049	790 ± 32
321.05 K, x1 = 0.157	912 ± 37
322.35 K, x1 = 0.027	612 ± 25
323.35 K, x1 = 0.057	784 ± 31
324.95 K, x1 = 0.433	940 ± 38
325.25 K, x1 = 0.736	857 ± 35
325.65 K, x1 = 0.184	885 ± 35
